US11497752B2, “Compounds and uses thereof” (Foghorn Therapeutics Inc., priority 2018, dated 2022)

Key:
BRM = BRM (Homo sapiens, UniProt P51531); test: ATPase catalytic activity of BRM (ADP-Glo in vitro biochemical assay)
BRG-1 = BRG-1 (Homo sapiens, UniProt P51532); test: ATPase catalytic activity of BRG-1 (ADP-Glo in vitro biochemical assay); conditions: for BRG1 Max % Inhibition: Table 5
BRG-1, sequence (P51532 whole entry): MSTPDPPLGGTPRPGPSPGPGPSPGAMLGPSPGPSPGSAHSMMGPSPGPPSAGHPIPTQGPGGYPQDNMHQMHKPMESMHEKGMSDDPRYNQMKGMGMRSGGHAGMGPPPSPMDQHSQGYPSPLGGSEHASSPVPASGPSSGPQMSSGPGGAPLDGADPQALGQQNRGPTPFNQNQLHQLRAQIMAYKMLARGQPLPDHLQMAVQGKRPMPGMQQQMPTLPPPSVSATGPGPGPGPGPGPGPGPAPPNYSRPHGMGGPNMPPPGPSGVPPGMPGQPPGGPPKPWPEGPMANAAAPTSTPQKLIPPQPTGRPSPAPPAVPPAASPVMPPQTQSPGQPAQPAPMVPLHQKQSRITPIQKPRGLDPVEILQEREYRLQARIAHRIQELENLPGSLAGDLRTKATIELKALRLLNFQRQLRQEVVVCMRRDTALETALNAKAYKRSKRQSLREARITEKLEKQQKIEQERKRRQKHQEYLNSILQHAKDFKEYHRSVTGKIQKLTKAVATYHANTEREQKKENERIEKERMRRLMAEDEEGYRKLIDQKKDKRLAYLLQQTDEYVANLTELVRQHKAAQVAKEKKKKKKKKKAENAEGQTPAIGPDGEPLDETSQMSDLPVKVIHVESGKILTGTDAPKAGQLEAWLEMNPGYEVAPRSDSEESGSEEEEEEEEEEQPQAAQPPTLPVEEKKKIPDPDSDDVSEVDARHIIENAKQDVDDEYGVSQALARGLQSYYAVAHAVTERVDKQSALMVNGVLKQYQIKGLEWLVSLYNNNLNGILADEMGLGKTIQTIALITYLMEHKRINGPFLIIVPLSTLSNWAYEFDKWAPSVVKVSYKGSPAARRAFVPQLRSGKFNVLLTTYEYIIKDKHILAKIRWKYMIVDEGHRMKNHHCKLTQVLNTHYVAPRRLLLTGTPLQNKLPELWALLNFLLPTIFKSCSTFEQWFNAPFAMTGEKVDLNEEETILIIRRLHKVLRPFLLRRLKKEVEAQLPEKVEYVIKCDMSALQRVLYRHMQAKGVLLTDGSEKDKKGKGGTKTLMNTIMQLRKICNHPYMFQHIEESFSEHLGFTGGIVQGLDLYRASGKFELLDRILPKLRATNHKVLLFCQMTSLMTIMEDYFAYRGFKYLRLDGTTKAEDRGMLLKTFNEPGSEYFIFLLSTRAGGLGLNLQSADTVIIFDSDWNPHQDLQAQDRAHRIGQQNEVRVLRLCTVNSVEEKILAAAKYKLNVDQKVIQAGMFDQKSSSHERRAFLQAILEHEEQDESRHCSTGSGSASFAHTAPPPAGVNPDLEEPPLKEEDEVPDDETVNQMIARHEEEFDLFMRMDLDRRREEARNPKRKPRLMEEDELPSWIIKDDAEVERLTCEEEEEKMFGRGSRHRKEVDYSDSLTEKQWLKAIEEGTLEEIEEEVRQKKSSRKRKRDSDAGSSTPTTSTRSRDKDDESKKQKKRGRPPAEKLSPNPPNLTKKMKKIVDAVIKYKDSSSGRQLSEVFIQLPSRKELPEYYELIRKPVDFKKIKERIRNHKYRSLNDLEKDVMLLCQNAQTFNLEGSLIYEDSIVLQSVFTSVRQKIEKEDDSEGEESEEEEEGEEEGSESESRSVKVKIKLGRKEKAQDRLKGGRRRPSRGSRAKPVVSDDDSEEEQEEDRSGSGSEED

BRM, sequence (P51531 whole entry): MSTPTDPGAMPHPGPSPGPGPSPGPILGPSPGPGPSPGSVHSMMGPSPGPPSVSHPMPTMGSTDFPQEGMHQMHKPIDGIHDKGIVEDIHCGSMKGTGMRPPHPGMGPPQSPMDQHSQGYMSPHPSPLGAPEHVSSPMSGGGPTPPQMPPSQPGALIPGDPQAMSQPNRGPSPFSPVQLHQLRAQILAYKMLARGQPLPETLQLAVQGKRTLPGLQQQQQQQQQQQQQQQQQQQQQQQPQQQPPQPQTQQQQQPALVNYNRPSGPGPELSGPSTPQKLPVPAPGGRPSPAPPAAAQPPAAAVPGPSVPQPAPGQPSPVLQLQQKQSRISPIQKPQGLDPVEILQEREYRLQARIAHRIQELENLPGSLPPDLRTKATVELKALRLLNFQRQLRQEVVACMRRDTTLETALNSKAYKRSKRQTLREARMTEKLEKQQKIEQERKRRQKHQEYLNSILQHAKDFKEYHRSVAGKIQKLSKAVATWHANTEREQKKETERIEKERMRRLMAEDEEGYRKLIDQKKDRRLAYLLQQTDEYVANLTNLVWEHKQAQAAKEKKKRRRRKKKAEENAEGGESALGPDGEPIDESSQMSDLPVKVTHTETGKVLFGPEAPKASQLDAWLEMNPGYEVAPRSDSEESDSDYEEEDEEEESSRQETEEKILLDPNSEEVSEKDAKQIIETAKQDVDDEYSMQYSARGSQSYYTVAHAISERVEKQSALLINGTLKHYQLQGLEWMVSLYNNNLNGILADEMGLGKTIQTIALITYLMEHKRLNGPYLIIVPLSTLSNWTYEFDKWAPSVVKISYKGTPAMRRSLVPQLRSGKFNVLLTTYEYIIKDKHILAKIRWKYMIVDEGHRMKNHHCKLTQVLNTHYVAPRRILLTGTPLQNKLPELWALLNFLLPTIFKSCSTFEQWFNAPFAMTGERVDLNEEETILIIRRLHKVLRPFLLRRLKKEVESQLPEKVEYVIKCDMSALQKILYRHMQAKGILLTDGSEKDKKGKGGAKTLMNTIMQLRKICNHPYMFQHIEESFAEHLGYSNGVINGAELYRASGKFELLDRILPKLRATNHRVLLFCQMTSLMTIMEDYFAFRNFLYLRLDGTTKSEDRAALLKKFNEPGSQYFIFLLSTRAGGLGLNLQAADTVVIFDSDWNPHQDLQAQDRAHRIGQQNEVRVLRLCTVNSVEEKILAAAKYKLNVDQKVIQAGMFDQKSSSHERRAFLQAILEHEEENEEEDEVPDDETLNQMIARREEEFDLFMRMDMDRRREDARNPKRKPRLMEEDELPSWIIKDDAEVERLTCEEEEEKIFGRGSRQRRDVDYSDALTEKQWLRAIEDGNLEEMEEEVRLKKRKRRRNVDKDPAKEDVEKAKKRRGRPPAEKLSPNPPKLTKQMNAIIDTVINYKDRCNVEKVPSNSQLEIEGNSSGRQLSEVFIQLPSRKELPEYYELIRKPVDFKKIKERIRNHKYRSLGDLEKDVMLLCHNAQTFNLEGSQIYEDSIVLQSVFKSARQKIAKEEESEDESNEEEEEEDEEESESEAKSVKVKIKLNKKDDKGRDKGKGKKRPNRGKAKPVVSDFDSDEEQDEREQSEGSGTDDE

| SMILES | IC50 (BRM) | BRM Max % Inhibition (BRM; Table 5) | IC50 (BRG-1) | BRG1 Max % Inhibition (BRG-1) | BRM Max % Inhibition (BRM; Table 6) |
| --- | --- | --- | --- | --- | --- |
| CNC(=O)c1cccc(-c2csc(NC(=O)CNC(=O)c3cccc(S(=O)(=O)N(C)C)c3)n2)c1 [Compound 4, 3-[2-[[2-[[3-(dimethylsulfamoyl)benzoyl]amino]acetyl]amino]thiazol-4-yl]-N-methyl-benzamide] | 1000 to 10000 nM | >90% | > 10 µM | >70% |  |
| CC(=O)NCc1cccc(-c2csc(NC(=O)CNC(=O)c3cccc(S(=O)(=O)N(C)C)c3)n2)c1 [Compound 5, N-[2-[[4-[3-(acetamidomethyl)phenyl]thiazol-2-yl]amino]-2-oxo-ethyl]-3-(dimethylsulfamoyl)benzamide] | > 10000 nM | >90% | > 10 µM | >70% |  |
| COC(=O)c1cccc(-c2csc(NC(=O)CNC(=O)c3cccc(S(=O)(=O)N(C)C)c3)n2)c1 [Compound 9, methyl 3-[2-[[2-[[3-(dimethylsulfamoyl)benzoyl]amino]acetyl]amino]thiazol-4-yl]benzoate] | < 1000 nM | >90% | < 1 µM | >60% |  |
| CN(C)S(=O)(=O)c1cccc(C(=O)NCC(=O)Nc2nc(-c3cccc(CN)c3)cs2)c1 [Compound 10, N-[2-[[4-[3-(aminomethyl)phenyl]thiazol-2-yl]amino]-2-oxo-ethyl]-3-(dimethylsulfamoyl)benzamide] | > 10000 nM | >90% | > 10 µM | >90% |  |
| CSCC[C@H](NC(=O)c1cccc(S(=O)(=O)C(C)C)c1)C(=O)Nc1nc(-c2ccccc2)cs1 [Compound 14, (S)-3-(isopropylsulfonyl)-N-(4-(methylthio)-1-oxo-1-((4-phenylthiazol-2-yl)amino)butan-2-yl)benzamide] | 1000 to 10000 nM | >80% | > 10 µM | >60% |  |
| CN(C)S(=O)(=O)c1cccc(C(=O)NCC(=O)Nc2nc(-c3ccc4c(c3)OCCO4)cs2)c1 [Compound 15, N-(2-((4-(2,3-dihydrobenzo[b][1,4]dioxin-6-yl)thiazol-2-yl)amino)-2-oxoethyl)-3-(N,N-dimethylsulfamoyl)benzamide] | 1000 to 10000 nM | >80% | 1 to 10 µM | >60% |  |
| CCC[C@H](NC(=O)c1cccc(S(=O)(=O)N(C)C)c1)C(=O)Nc1nc(-c2ccccc2)cs1 [Compound 17, 3-(dimethylsulfamoyl)-N-[(1S)-1-[(4-phenylthiazol-2-yl)carbamoyl]butyl]benzamide] | 1000 to 10000 nM | >80% | > 10 µM | >60% |  |
| CN(C)S(=O)(=O)c1cccc(C(=O)NCC(=O)Nc2nc(-c3ccccc3Br)cs2)c1 [Compound 18, N-[2-[[4-(2-bromophenyl)thiazol-2-yl]amino]-2-oxo-ethyl]-3-(dimethylsulfamoyl)benzamide] | > 10000 nM | >80% | > 10 µM | >60% |  |
| COc1ccc(C(=O)N[C@@H](CCSC)C(=O)Nc2nc(-c3ccccc3)cs2)cc1S(C)(=O)=O [Compound 20, 4-methoxy-N-[(1S)-3-methylsulfanyl-1-[(4-phenylthiazol-2-yl)carbamoyl]propyl]-3-methylsulfonyl-benzamide] | > 10000 nM | >70% | > 10 µM | >60% |  |
| CC(=O)NC[C@H](NC(=O)c1cccc(S(=O)(=O)N(C)C)c1)C(=O)Nc1nc(-c2ccccc2)cs1 [Compound 21, (S)—N-(3-acetamido-1-oxo-1-((4-phenylthiazol-2-yl)amino)propan-2-yl)-3-(N,N-dimethylsulfamoyl)benzamide] | > 10000 nM | >70% | > 10 µM | >60% |  |
| CN(C)S(=O)(=O)c1cccc(C(=O)NCC(=O)Nc2nc(-c3ccc(CN)cc3)cs2)c1 [Compound 22, N-[2-[[4-[4-(aminomethyl)phenyl]thiazol-2-yl]amino]-2-oxo-ethyl]-3-(dimethylsulfamoyl)benzamide] | > 10000 nM | >70% | > 10 µM | >60% |  |
| CS(=O)(=O)c1cccc(C(=O)NCC(=O)Nc2nc(-c3ccccc3)cs2)c1 [Compound 23, 3-methylsulfonyl-N-[2-oxo-2-[(4-phenylthiazol-2-yl)amino]ethyl]benzamide] | 1000 to 10000 nM | >70% | 1 to 10 µM | >50% |  |
| CSCC[C@H](NC(=O)c1cccc(S(=O)(=O)N(C)C)c1)C(=O)Nc1nc(-c2ccccc2)cs1 [Compound 24, (S)-3-(N,N-dimethylsulfamoyl)-N-(4-(methylthio)-1-oxo-1-((4-phenylthiazol-2-yl)amino)butan-2-yl)benzamide] | 1000 to 10000 nM | >70% |  | >99% |  |
| CSCC[C@H](NC(=O)c1ccc2[nH]ccc2c1)C(=O)Nc1nc(-c2ccccc2)cs1 [Compound 83, (S)—N-(4-(methylthio)-1-oxo-1-((4-phenylthiazol-2-yl)amino)butan-2-yl)-1H-indole-5-carboxamide] | 1000 to 10000 nM | >90% |  |  |  |
| CSCC[C@@H](NC(=O)c1ccc(N)cc1)C(=O)Nc1nc(-c2cccc(-c3ccncc3)c2)cs1 [Compound 155, (R)-4-amino-N-(4-(methylthio)-1-oxo-1-((4-(3-(pyridin-4-yl)phenyl)thiazol-2-yl)amino)butan-2-yl)benzamide] |  |  |  |  | >80% |

The next lines start with results.

| IC50 (BRM) | BRM Max % Inhibition (BRM; Table 5) | IC50 (BRG-1) | BRG1 Max % Inhibition (BRG-1) | SMILES | BRM Max % Inhibition (BRM; Table 6) |
| --- | --- | --- | --- | --- | --- |
| 1000 to 10000 nM | >95% | 1 to 10 µM | >70% | Cc1cccc(-c2csc(NC(=O)CNC(=O)c3cccc(S(=O)(=O)N(C)C)c3)n2)c1 [Compound 1, 3-(dimethylsulfamoyl)-N-[2-[[4-(m-tolyl)thiazol-2-yl]amino]-2-oxo-ethyl]benzamide] |  |
| < 1000 nM | >95% | 1 to 10 µM | >95% | CSCC[C@H](NC(=O)c1ccc(C)c(S(C)(=O)=O)c1)C(=O)Nc1nc(-c2ccccc2)cs1 [Compound 2, 4-methyl-N-[(1S)-3-methylsulfanyl-1-[(4-phenylthiazol-2-yl)carbamoyl]propyl]-3-methylsulfonyl-benzamide] |  |
| 1000 to 10000 nM | >95% | 1 to 10 µM | >90% | CSCC[C@H](NC(=O)c1cccc(S(C)(=O)=O)c1)C(=O)Nc1nc(-c2ccccc2)cs1 [Compound 3, (S)-3-(methylsulfonyl)-N-(4-(methylthio)-1-oxo-1-((4-phenylthiazol-2-yl)amino)butan-2-yl)benzamide] |  |
| 1000 to 10000 nM | >90% | > 10 µM | >60% | CC(C)S(=O)(=O)c1cccc(C(=O)NCC(=O)Nc2nc(-c3ccccc3)cs2)c1 [Compound 6, 3-(isopropylsulfonyl)-N-(2-oxo-2-((4-phenylthiazol-2-yl)amino)ethyl)benzamide] |  |
| 1000 to 10000 nM | >90% | 1 to 10 µM | >60% | CN(C)S(=O)(=O)c1cccc(C(=O)NCC(=O)Nc2nc(-c3cccc(Br)c3)cs2)c1 [Compound 7] |  |
| 1000 to 10000 nM | >90% | > 10 µM | >70% | CN(C)S(=O)(=O)c1cccc(C(=O)NCC(=O)Nc2nc(-c3cccc(C#N)c3)cs2)c1 [Compound 8, N-[2-[[4-(3-cyanophenyl)thiazol-2-yl]amino]-2-oxo-ethyl]-3-(dimethylsulfamoyl)benzamide] |  |
| 1000 to 10000 nM | >80% | > 10 µM | >70% | CC(=O)NCc1ccc(-c2csc(NC(=O)CNC(=O)c3cccc(S(=O)(=O)N(C)C)c3)n2)cc1 [Compound 11, N-[2-[[4-[4-(acetamidomethyl)phenyl]thiazol-2-yl]amino]-2-oxo-ethyl]-3-(dimethylsulfamoyl)benzamide] |  |
| 1000 to 10000 nM | >80% | 1 to 10 µM | >30% | CN(C)S(=O)(=O)c1cccc(C(=O)NCC(=O)Nc2nc(-c3ccccc3)cs2)c1 [Compound 13, 3-(dimethylsulfamoyl)-N-[2-oxo-2-[(4-phenylthiazol-2-yl)amino]ethyl]benzamide] |  |
| 1000 to 10000 nM | >80% | > 10 µM | >60% | Cc1ccccc1-c1csc(NC(=O)CNC(=O)c2cccc(S(=O)(=O)N(C)C)c2)n1 [Compound 16, 3-(dimethylsulfamoyl)-N-[2-[[4-(o-tolyl)thiazol-2-yl]amino]-2-oxo-ethyl]benzamide] |  |
| < 1000 nM | >70% | > 10 µM | >30% | Cc1ccc(C(=O)NCC(=O)Nc2nc(-c3ccccc3)cs2)cc1S(C)(=O)=O [Compound 19, 4-methyl-3-(methylsulfonyl)-N-(2-oxo-2-((4-phenylthiazol-2-yl)amino)ethyl)benzamide] |  |
| 100 to 1000 nM |  |  |  | Cc1nnc(-c2cccc(-c3csc(NC(=O)CNC(=O)c4ccc(N)cc4)n3)c2)o1 [Compound 113, 4-amino-N-(2-((4-(3-(5-methyl-1,3,4-oxadiazol-2-yl)phenyl)thiazol-2-yl)amino)-2-oxoethyl)benzamide] |  |
| < 100 nM |  |  |  | Nc1ccc(C(=O)NCC(=O)Nc2nc(-c3cccc(-c4ccncc4)c3)cs2)cc1 [Compound 117, 4-amino-N-(2-oxo-2-((4-(3-(pyridin-4-yl)phenyl)thiazol-2-yl)amino)ethyl)benzamide] |  |
| 100 to 1000 nM |  |  |  | Cc1cc(-c2cccc(-c3csc(NC(=O)CNC(=O)c4ccc(N)cc4)n3)c2)on1 [Compound 231, 4-amino-N-[2-[[4-[3-(3-methylisoxazol-5-yl)phenyl]thiazol-2-yl]amino]-2-oxo-ethyl]benzamide] |  |
